Our source for the Ki values is BindingDB's records for aid1799748 (Csar, 2012).

As a reminder, the Ki is a dissociation constant, usually derived from enzyme kinetics or from competition with a known ligand. A higher Ki goes with a looser hold on the target.

The target in the experiment is Urokinase-type plasminogen activator (Homo sapiens, UniProt P00749). Put plainly: Abbott uPA__Urokinase Human - Ki(uM). The following applies: pH 7.4; 25 °C.

As for `CN1CCc2ccc(C3CC3c3ccc4cc(C(=N)N)ccc4c3)cc2C1C1CCC1` (stereo not drawn) [uPa_41], affinity was put at a Ki of 42 nM.

`N#CC(CCOc1cccc2ccc(N)nc12)(c1ccccc1)c1ccccc1` [uPa_16]: the Ki was more than 40000 nM. As to `CS(=O)(=O)n1cc(-c2cc(C(=O)Nc3ccccc3)cc3ccc(C(=N)N)cc23)cn1` [uPa_20], the Ki is 769 nM. For `C=CCNC(=O)Nc1cccc2ccc(N)nc12` [uPa_30], the Ki is more than 10000 nM. In the case of `N=C(N)NC(=O)c1nc(Cl)c(NCc2cc(Cl)cc(Cl)c2)nc1N` [uPa_22], the affinity corresponds to a Ki of 3570 nM. The compound `N=C(N)c1ccc2cc(C(=O)Nc3ccc4c(c3)C(c3ccccc3)=NCC4)ccc2c1` [uPa_29] returned a Ki of 290 nM. `Nc1cc2ccccc2cn1` showed a Ki of more than 30000 nM. `COc1ccc2ccc(C(=N)N)cc2c1-c1cnn(C(C)C)c1` [uPa_11] had a Ki of 4500 nM.

With `Nc1cnc2ccccc2n1` [uPa_1], the Ki is more than 50000 nM.

`C#CCN(C)C(=O)c1ccc2ccc(N)nc2c1` [uPa_33] showed a Ki of more than 100000 nM. For `CN1CCc2ccc(/C=C/c3ccc4cc(C(=N)N)ccc4c3)cc2C1C1CCCCC1` (stereo not drawn) [uPa_40], the Ki came out at 223 nM. In the case of `CC(C)CN(CC(C)C)C(=O)c1ccc2ccc(N)nc2c1` [uPa_34], the Ki was more than 100000 nM. As for `N=C(N)c1ccc2cc(NS(=O)(=O)c3ccccc3)ccc2c1` [uPa_14], the figure is 8700 nM; as for `N=C(N)c1ccc2cc(C(=O)Nc3ccc4c(c3)C(C3CCCCC3)=NCC4)ccc2c1` [uPa_31], 66 nM; as for `COC(=O)Nc1cc(C(=O)Nc2ccccc2)cc2ccc(C(=N)N)cc12` [uPa_36], 18 nM. As to `N=C(N)NC(=O)c1ccc(Cl)c(S(N)(=O)=O)c1` [uPa_45], the Ki is more than 100000 nM.

As for `COC(=O)Nc1ccc2nc(N)ccc2c1` [uPa_24], the Ki was more than 50000 nM. Under `CC(C)C1c2cc(C3CC3c3cc(/C=C/C4CC4)c4cc(C(=N)N)ccc4c3)ccc2CCN1C` (stereo not drawn) [uPa_43] stands 9 nM; under `CC(C)Oc1ccc2cc(C(=N)N)ccc2c1` [uPa_5], 7280 nM; under `N=C(N)c1ccc2cc(C#Cc3cccc(OC4CCCC4)c3)ccc2c1` [uPa_25], 665 nM. As to `CS(=O)(=O)Nc1cc(CCc2ccccc2)cc2ccc(C(=N)N)cc12` [uPa_37], the Ki came out at 1490 nM. On to `Nc1ccc2nc(N)ccc2c1` [uPa_23], for which the Ki was more than 104000 nM. As for `COc1cc(NC(=O)c2ccc3cc(C(=N)N)ccc3c2)cc(OC(C)C)c1` [uPa_28], the figure is 33 nM; as for `N=C(N)c1ccc2cc(C(=O)Nc3ccccc3)cc(-c3ncccn3)c2c1` [uPa_21], 7850 nM.

In turn, `CN(CC#N)C(=O)c1ccc2ccc(N)nc2c1` [uPa_35] had a Ki of more than 100000 nM.

`CN1CCc2ccc(C3CC3c3ccc4cc(C(=N)N)ccc4c3)cc2C1c1cccnc1` (stereo not drawn) [uPa_44] had a Ki of 1250 nM. Regarding `CC(C)C1=NCCc2ccc(NC(=O)c3cc(Br)c4cc(C(=N)N)ccc4c3)cc21` [uPa_26], the Ki is 16 nM.

The compound `COC(=O)Nc1ccc2nc(C(=N)N)ccc2c1` [uPa_27] displayed a Ki of more than 50000 nM. For the compound `N=C(N)c1ccc2cc(/C=C/CCc3cccnc3)cc(Br)c2c1` [uPa_32], the Ki came out at 3080 nM. As to `COc1cc(C2CC2c2ccc3c(c2)C(C(C)C)N(C)CC3)cc2ccc(C(=N)N)cc12` (stereo not drawn) [uPa_42], affinity was put at a Ki of 94 nM. In turn, `COc1cc2ccc(C(=N)N)cc2c(OC)c1OC` [uPa_2] displayed a Ki of 8030 nM. In turn, `CCOc1cc(OCC)c(OCC)cc1/C=C/c1cc(Br)c2cc(C(=N)N)ccc2c1` [uPa_38] yielded a Ki of 777 nM. Consider `COC(=O)Nc1cc(C(=O)Nc2ccc(CN)cc2)cc2ccc(C(=N)N)cc12` [uPa_17], for which the affinity corresponds to a Ki of 0.9 nM.
